Experiments:
[1] = tested on: recombinant human CFTR carrying the premature stop codon (PTC) mutation G542X; experiment: CFTR-PTC mutant translation readthrough, Nanoluc tagged CFTR luminescence (G542X cell line); format: cell-based; conditions: in combination with G418, G542X cell line; for EC50: 16HBE cells; for CFTR G542X ACTIVITY Fold 10 μM G-418: fold over 10 μM G-418
Summary of the method: (§1)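 Readthrough is the 48 h compound-induced luminescence increase scaled to that of maximal G418 (125-250 μM). Compounds run from 50 μM final in 2-fold steps, ±10 μM G418, on 16HBE lines carrying Nanoluc-tagged CFTR G542X (extracellular loop 4 tag) or R1162X (C-terminal tag), with 3 μM VX-809 present.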

[2] = tested on: recombinant human CFTR carrying the premature stop codon (PTC) mutation R1162X; experiment: CFTR-PTC mutant translation readthrough, Nanoluc tagged CFTR luminescence (R1162X cell line); format: cell-based; conditions: for EC50: in combination with G418, 16HBE cells, read-out: CFTR R1162X ACTIVITY EC50; for CFTR R1162X ACTIVITY Fold 10 μM G-418: fold over 10 μM G-418, in combination with G418
Summary of the method: as §1

Compound	EC50 [1] [nM]	EC50 [2] [nM]	CFTR G542X ACTIVITY Fold 10 μM G-418 [1]	CFTR R1162X ACTIVITY Fold 10 μM G-418 [2]
O=C(O)C1CCCN(c2ncc(OCc3c(Cl)cccc3C(F)(F)F)cn2)C1 (stereo not drawn) [1-(5-{[2-chloro-6-(trifluoromethyl)phenyl]methoxy]pyrimidin-]	1000 to 10000	> 10000		
O=C(O)C1CCN(c2ncc(OCc3c(Cl)cccc3C(F)(F)F)cn2)CC1 [1-(5-{[2-chloro-6-(trifluoromethyl)phenyl]methoxy}pyrimidin-]	1000 to 10000	1000 to 10000	C′ (C′ = <5X)	C′ (C′ = <5X)
CC(O)C1CCN(c2ncc(OCc3c(Cl)cccc3Cl)cn2)C1 (stereo not drawn) [1-[1-[5-[(2,6-dichlorophenyl)methoxy]pyrimidin-2-yl]pyrrolidin-3-yl]ethanol]	1000 to 10000	1000 to 10000	A′ (A′ = ≥10X)	A′ (A′ = ≥10X)
COCC1CN(c2ccc(OCc3c(Cl)cccc3Cl)cc2)C(=O)N1 (stereo not drawn) [1-[4-[(2,6-dichlorophenyl)methoxy]phenyl]-4-(methoxymethyl)imidazolidin-2-one]	1000 to 10000	1000 to 10000	B′ (B′ = ≥5X to <10X)	B′ (B′ = ≥5X to <10X)
OCC(O)c1ccc(OCc2c(Cl)cccc2Cl)cn1 (stereo not drawn) [1-[5-[(2,6-dichlorophenyl)methoxy]-2-pyridyl]ethane-1,2-diol]	> 10000	1000 to 10000	A′ (A′ = ≥10X)	B′ (B′ = ≥5X to <10X)
N#Cc1ncn(-c2ncc(OCc3c(Cl)cccc3Cl)cn2)n1 [1-[5-[(2,6-dichlorophenyl)methoxy]pyrimidin-2-yl]-1,2,4-triazole-3-carbonitrile]	1000 to 10000	1000 to 10000	A′ (A′ = ≥10X)	C′ (C′ = <5X)
NC(=O)c1ncn(-c2ncc(OCc3c(Cl)cccc3Cl)cn2)n1 [1-[5-[(2,6-dichlorophenyl)methoxy]pyrimidin-2-yl]-1,2,4-triazole-3-carboxamide]	1000 to 10000	> 10000	C′ (C′ = <5X)	
NC(=O)C1CN(c2ncc(OCc3c(Cl)cccc3Cl)cn2)C1 [1-[5-[(2,6-dichlorophenyl)methoxy]pyrimidin-2-yl]azetidine-3-carboxamide]	1000 to 10000	1000 to 10000	B′ (B′ = ≥5X to <10X)	A′ (A′ = ≥10X)
OC1CCN(c2ncc(OCc3c(Cl)cccc3Cl)cn2)CC1 [1-[5-[(2,6-dichlorophenyl)methoxy]pyrimidin-2-yl]piperidin-4-ol]	< 1000	< 1000	A′ (A′ = ≥10X)	A′ (A′ = ≥10X)
N#Cc1ccn(-c2ncc(OCc3c(Cl)cccc3Cl)cn2)n1 [1-[5-[(2,6-dichlorophenyl)methoxy]pyrimidin-2-yl]pyrazole-3-carbonitrile]	1000 to 10000	< 1000	A′ (A′ = ≥10X)	B′ (B′ = ≥5X to <10X)
O=C(O)C1CCN(c2ncc(OCc3c(Cl)cccc3C(F)(F)F)cn2)CC1 [1-[5-[[2-chloro-6-(trifluoromethyl)phenyl]methoxy]pyrimidin-]	1000 to 10000	1000 to 10000	A;	A′ (A′ = ≥10X)
Cc1cccc(C(F)(F)F)c1COc1cnc(N2CCC(O)CC2)nc1 [1-[5-[[2-methyl-6-(trifluoromethyl)phenyl]methoxy]pyrimidin-2-yl]piperidin-4-ol]	< 1000	< 1000	A′ (A′ = ≥10X)	A′ (A′ = ≥10X)
O=C1CN(Cc2ccccc2)C(=O)N1c1ncc(OCc2ccccc2)cn1 [1-benzyl-3-(5-benzyloxypyrimidin-2-yl)imidazolidine-2,4-dione]	< 1000	1000 to 10000	A′ (A′ = ≥10X)	A′ (A′ = ≥10X)
CCCCN1CC(=O)N(c2ncc(OCc3c(Cl)cccc3Cl)cn2)C1=O [1-butyl-3-[5-[(2,6-dichlorophenyl)methoxy]pyrimidin-2-yl]imidazolidine-2,4-dione]	> 10000	> 10000		C′ (C′ = <5X)
OCCC1CCN(c2ncc(OCc3c(Cl)cccc3Cl)cn2)CC1 [2-[1-[5-[(2,6-dichlorophenyl)methoxy]pyrimidin-2-yl]-4-piperidyl]ethanol]	< 1000	1000 to 10000	A′ (A′ = ≥10X)	B′ (B′ = ≥5X to <10X)

The next lines start with results.

EC50 [1] [nM]	EC50 [2] [nM]	Compound	CFTR G542X ACTIVITY Fold 10 μM G-418 [1]	CFTR R1162X ACTIVITY Fold 10 μM G-418 [2]
1000 to 10000	1000 to 10000	CC(=O)N1CCN(c2ncc(OCc3c(Cl)cccc3Cl)cn2)CC1 [1-[4-[5-[(2,6-dichlorophenyl)methoxy]pyrimidin-2-yl]piperazin-1-yl]ethanone]	A′ (A′ = ≥10X)	A′ (A′ = ≥10X)
1000 to 10000	1000 to 10000	Clc1cccc(Cl)c1COc1ccc(-n2cncn2)cc1 [1-[4-[(2,6-dichlorophenyl)methoxy]phenyl]-1,2,4-triazole]	A′ (A′ = ≥10X)	A′ (A′ = ≥10X)
1000 to 10000	> 10000	Clc1cccc(Cl)c1COc1ccc(-n2ccnc2)cc1 [1-[4-[(2,6-dichlorophenyl)methoxy]phenyl]imidazole]	B′ (B′ = ≥5X to <10X)	A′ (A′ = ≥10X)
1000 to 10000	1000 to 10000	O=C1CCC(=O)N1c1ccc(OCc2c(Cl)cccc2Cl)cc1 [1-[4-[(2,6-dichlorophenyl)methoxy]phenyl]pyrrolidine-2,5-dione]	A′ (A′ = ≥10X)	B′ (B′ = ≥5X to <10X)
1000 to 10000	1000 to 10000	CN(C(N)=O)c1ncc(OCc2c(Cl)cccc2Cl)cn1 [1-[5-[(2,6-dichlorophenyl)methoxy]pyrimidin-2-yl]-1-methyl-urea]	A′ (A′ = ≥10X)	A′ (A′ = ≥10X)
< 1000	< 1000	CC1CN(c2ncc(OCc3c(Cl)cccc3Cl)cn2)CCC1O (stereo not drawn) [1-[5-[(2,6-dichlorophenyl)methoxy]pyrimidin-2-yl]-3-methyl-piperidin-4-ol]	A′ (A′ = ≥10X)	A′ (A′ = ≥10X)
< 1000	1000 to 10000	OC1(c2ccccc2)CCN(c2ncc(OCc3c(Cl)cccc3Cl)cn2)CC1 [1-[5-[(2,6-dichlorophenyl)methoxy]pyrimidin-2-yl]-4-phenyl-piperidin-4-ol]	A′ (A′ = ≥10X)	A′ (A′ = ≥10X)
1000 to 10000	1000 to 10000	OC1CN(c2ncc(OCc3c(Cl)cccc3Cl)cn2)C1 [1-[5-[(2,6-dichlorophenyl)methoxy]pyrimidin-2-yl]azetidin-3-ol]	A′ (A′ = ≥10X)	A′ (A′ = ≥10X)
< 1000	1000 to 10000	OC1CCCN(c2ncc(OCc3c(Cl)cccc3Cl)cn2)C1 (stereo not drawn) [1-[5-[(2,6-dichlorophenyl)methoxy]pyrimidin-2-yl]piperidin-3-ol]	A′ (A′ = ≥10X)	A′ (A′ = ≥10X)
< 1000	< 1000	NC(=O)C1CCCN(c2ncc(OCc3c(Cl)cccc3Cl)cn2)C1 (stereo not drawn) [1-[5-[(2,6-dichlorophenyl)methoxy]pyrimidin-2-yl]piperidine-3-carboxamide]	A′ (A′ = ≥10X)	A′ (A′ = ≥10X)
< 1000	< 1000	NC(=O)c1ccn(-c2ncc(OCc3c(Cl)cccc3Cl)cn2)n1 [1-[5-[(2,6-dichlorophenyl)methoxy]pyrimidin-2-yl]pyrazole-3-carboxamide]	A′ (A′ = ≥10X)	B′ (B′ = ≥5X to <10X)
1000 to 10000	1000 to 10000	NC(=O)C1CCN(c2ncc(OCc3c(Cl)cccc3Cl)cn2)C1 (stereo not drawn) [1-[5-[(2,6-dichlorophenyl)methoxy]pyrimidin-2-yl]pyrrolidine-3-carboxamide]	A′ (A′ = ≥10X)	A′ (A′ = ≥10X)
1000 to 10000	< 1000	O=C(O)c1ncn(-c2ccc(OCc3c(Cl)cccc3C(F)(F)F)cn2)n1 [1-[5-[[2-chloro-6-(trifluoromethyl)phenyl]methoxy]-2-pyridyl]	B′ (B′ = ≥5X to <10X)	
1000 to 10000	< 1000	O=C(O)C1CCCN(c2ncc(OCc3c(Cl)cccc3C(F)(F)F)cn2)C1 (stereo not drawn) [1-[5-[[2-chloro-6-(trifluoromethyl)phenyl]methoxy]pyrimidin-]	C′ (C′ = <5X)	
< 1000	< 1000	Cc1cccc(C(F)(F)F)c1COc1cnc(-n2nnc3ccccc32)nc1 [1-[5-[[2-methyl-6-(trifluoromethyl)phenyl]methoxy]pyrimidin-2-yl]benzotriazole]	A′ (A′ = ≥10X)	A′ (A′ = ≥10X)
1000 to 10000	1000 to 10000	Cc1cccc(C(F)(F)F)c1COc1cnc(N2CCS(=O)(=O)C(CO)C2)nc1 (stereo not drawn) [2-(hydroxymethyl)-4-(5-{[2-methyl-6-(trifluoromethyl)phenyl]]	C′ (C′ = <5X)	

Source: patent publication US20250228865A1, “COMPOUNDS FOR ENHANCING READ THROUGH OF GENES CONTAINING PREMATURE TERMINATION CODONS AND METHODS FOR MAKING AND USING THE SAME” (Sanofi US Services Inc., priority 2022, published 2025)
